In patent US10034824B2, “Hair shaping composition” (Conopco, Inc., priority 2014, dated 2018):

Assay: Hair switch volume-down test (switches dosed, combed straight, dried overnight, imaged)
Experimental: Dark brown European wavy#6 switches of length 25 cm and weight 2 gms (from the same batch of switches), were dosed with 0.2 ml of a 2% solution of monoglucosamine adipate. Control switches were treated with water.
All switches were combed straight and left to dry overnight.
When dry the switches were combed straight and pictures taken. […] The percentage benefit (i.e. decrease in volume) with respect to control (water) is also given.

[1] = 0.2 ml of a 2% solution on 25 cm, 2 gms switches, combed straight, dried overnight

## monoglucosamine adipate
[1]
  % benefit (decrease in volume with respect to control (water)): 8.0%
  Volume (projection of the switch image on to the screen): 13047 mm^2
2% solution vs water control, result in words
  hair volume-down benefit: significant hair volume-down benefit
